Holding throughout (type): biochemical
In assay [1] the test system is protease isolated from Pseudomonas aeruginosa MCM B-327. Briefly: Effect of inhibitors on protease activity. The settings on record: for Enzyme activity: incubated 30 min, None = 42.77. Here is the method: This example illustrates the effect of inhibitors on activity of the protease isolated from Pseudomonas aeruginosa MCM B-327 when grown in soybean meal−tryptone (HiMedia) medium. The cell free supernatant was salt precipitated and used for this study in Tris-HCl buffer, pH 8.0 at 37° C. The enzyme and the inhibitor were incubated for 30 min prior to enzyme assay.

The test system is the same in assay [2]. The assay is described as follows: Effect of ingredients of detergents on protease activity. The settings on record: for Enzyme activity: incubated 30 min prior to assay, Tris-HCl pH 8.0, 37° C., None = 42.77; for effect of surfactant on protease activity (in words): 1%. The procedure:
This example illustrates the effect of ingredients of detergents on activity of the protease isolated from Pseudomonas aeruginosa MCM B-327 when grown in soybean meal−tryptone (HiMedia) medium. The cell free supernatant was salt precipitated and used for this study in Tris-HCl buffer, pH 8.0 at 37° C. The enzyme and ingredients of detergent were incubated for 30 min prior to enzyme assay. The enzyme was stable in detergent ingredients while 20% inhibited by SDS.

Assay [3] has the same test system. The assay is described as follows: Effect of organic solvents on protease activity. Conditions: for Enzyme activity: organic solvent 50% v/v, 30 min of incubation, Tris-HCl pH 8.0, 37° C., None = 42.77; for inhibition of the enzyme: 50% v/v, after 30 min of incubation. Here is the method: The cell free supernatant was salt precipitated and used for this study in Tris-HCl buffer, pH 8.0 at 37° C.

The test system is the same in assay [4]. Briefly: Effect of metal ions on protease activity. The settings on record: Tris-HCl pH 8.0, 37° C.; for Enzyme activity: None = 42.77. Here is the method:
This example illustrates the effect of metal ions on activity of the protease isolated from Pseudomonas aeruginosa MCM B-327 when grown in soybean meal−tryptone (HiMedia) medium. The cell free supernatant was salt precipitated and used for this study in Tris-HCl buffer, pH 8.0 at 37° C.

Where [5] appears, read: inhibitor 1 mM, Tris-HCl pH 8.0, 37° C.

The source of these data is patent publication US20080220499A1, “NOVEL PROTEASE FOR INDUSTRIAL APPLICATIONS” (priority 2006, published 2008).

Regarding `O=S(=O)(F)Cc1ccccc1` [PMSF, Phenyl methyl sulphonyl fluoride], the Enzyme activity in assay [1] (setting [5]) is reported as 40.20 U/mg precipitate; in assay [1] (inhibitor 5 mM), 31.65 U/mg precipitate.

On to `CCCCCCCCCCCCOS(=O)(=O)[O-].[Na+]` [SDS], for which the “inhibition of the enzyme” value in assay [2] (detergent ingredient 1%, 30 min) was determined as 20%. Besides, the Enzyme activity in assay [2] (detergent ingredient 1%) is on record as 34.21 U/mg precipitate.

Regarding `NC(=O)CI` [Iodoacetamide], the Enzyme activity is given as 44.05 U/mg precipitate in assay [1] (setting [5]) and 43.62 U/mg precipitate in assay [1] (inhibitor 5 mM).

The molecule `O=P(O)(O)OP(=O)(O)OP(=O)(O)O` [Sodium tripolyphosphate] showed an Enzyme activity in assay [2] (detergent ingredient 1%) of 44.05 U/mg precipitate.

Molecule m-p-xylene had an Enzyme activity in assay [3] of 28.65 U/mg precipitate.

Consider `[Cl][Hg][Cl]` [HgCl2], for which the Enzyme activity in assay [4] (HgCl2 at 1 mM) turned out to be 9.83 U/mg precipitate; in assay [4] (metal ion at 5 mM) it was 6.84 U/mg precipitate. The “effect of metal ion on enzyme activity (in words)” value (“effect of metal ion” below) in assay [4] is reported as “affected the enzyme activity considerably”.

As to `O=S(=O)([O-])[O-].[Mg+2]` [MgSO4], the “effect of metal ion” value in assay [4] is “resistant to inhibition”. The Enzyme activity in assay [4] (metal ion at 5 mM) is reported as 42.77 U/mg precipitate.

In the case of `O=C(O)CN(CCN(CC(=O)O)CC(=O)O)CC(=O)O` [EDTA, Ethylenediamine tetra acetic acid], the Enzyme activity in assay [1] (inhibitor 2 mM) is given as 32.93 U/mg precipitate; in assay [1] (inhibitor 5 mM) it was 30.36 U/mg precipitate.

In assay [3], `CCCCC=O` [1-pentanone] gave an Enzyme activity of 11.54 U/mg precipitate.

On to `Cc1ccccc1` [Toluene], for which, in assay [3], the “inhibition of the enzyme” value turned out to be 51% and the Enzyme activity is given as 20.95 U/mg precipitate.

Turning to `CC(C)=O` [Acetone], the Enzyme activity in assay [3] amounted to 13.68 U/mg precipitate.

Consider `[Ca+2].[Cl-].[Cl-]` [CaCl2], for which the “effect of metal ion” value in assay [4] is given as “resistant to inhibition”. The same molecule registered an Enzyme activity in assay [4] (metal ion at 5 mM) of 42.34 U/mg precipitate.

In the case of `[Cl-].[Na+]` [NaCl], the “effect of metal ion” value in assay [4] is on record as “resistant to inhibition”. In assay [4] (metal ion at 5 mM), this molecule had an Enzyme activity of 41.06 U/mg precipitate.

Regarding Triton X100, in assay [2] (30 min), the “effect of surfactant on protease activity (in words)” value is “no inhibitory effect”. Moreover, the Enzyme activity in assay [2] (detergent ingredient 1%) is 41.49 U/mg precipitate.

As to `CCCCCC` [n-hexane], the Enzyme activity in assay [3] turned out to be 26.94 U/mg precipitate.

In the case of `CCCCCCCC/C=C\CCCCCCCC(=O)OCCOCC(OCCO)C1OCC(OCCO)C1OCCO` (centres unmarked) [Tween 80], the “effect of surfactant on protease activity (in words)” value in assay [2] (30 min) was “no inhibitory effect”. The molecule also yielded an Enzyme activity in assay [2] (detergent ingredient 1%) of 43.62 U/mg precipitate.

In turn, `CC(C)CC(C)(C)C` [Isooctane] gave an Enzyme activity in assay [3] of 28.65 U/mg precipitate.

Take `O[C@@H](CS)[C@@H](O)CS` [DTT, dithiothretol]: the “inhibition of the enzyme (in words)” value in assay [1] (1 & 5 mM) is “completely inhibited”. Besides, the Enzyme activity in assay [1] (setting [5]) and in assay [1] (inhibitor 5 mM) was 0 U/mg precipitate throughout.

Turning to `O=S(=O)([O-])[O-].[Fe+2]` [FeSO4], in assay [4], the “effect of metal ion” value is on record as “resistant to inhibition”. In addition, in assay [4] (metal ion at 5 mM), the Enzyme activity is listed as 37.64 U/mg precipitate.

As for `O=S(=O)([O-])[O-].[Cu+2]` [CuSO4], the “effect of metal ion” value in assay [4] is “affected the enzyme activity considerably”. Besides, the Enzyme activity in assay [4] (metal ion at 5 mM) turned out to be 10.69 U/mg precipitate.

`c1ccccc1` [Benzene]: in assay [3], the Enzyme activity was 11.54 U/mg precipitate.

With `CO` [Methanol], the Enzyme activity in assay [3] amounted to 14.11 U/mg precipitate.

Regarding `O=S(=O)([O-])[O-].[Zn+2]` [ZnSO4], the “effect of metal ion” value in assay [4] is “affected the enzyme activity considerably”. Moreover, the Enzyme activity in assay [4] (metal ion at 5 mM) is 12.40 U/mg precipitate.

Turning to `O=S(=O)([O-])[O-].[Mn+2]` [MnSO4], the “effect of metal ion” value in assay [4] is reported as “resistant to inhibition”. In assay [4] (metal ion at 5 mM), the Enzyme activity is 37.21 U/mg precipitate.

On to `CCO` [Ethanol], for which, in assay [3], the “inhibition of the enzyme” value is reported as 91% and the Enzyme activity came out at 3.84 U/mg precipitate.
